Experimental data taken from PubChem BioAssay AID1963963 (Molecular Pharmacology Branch, DTP, NCI, 2024).
pIC50: −log10 of the molar value. Each block holds one compound with its values, some of them ahead of it.

Test system: 958667-338-R-J2-PDC tumor spheroids viability
Test: Anticancer human tumor 958667-338-R-J2-PDC patient-derived colon adenocarcinoma cell line growth inhibition [PI3K]
Details: spheroids with HUVEC and MSC; for viability, T/C: stronger effect = lower value
Outline: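 Three cell types, namely tumor cells, endothelial cells and mesenchymal stem cells, formed each spheroid. Combinations with four PI3K inhibitors were screened at clinically achievable concentrations decreasing by half-log, and spheroid viability was recorded.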

[1] = curve of first compound, second compound 0.0316 µM
[2] = curve of first compound, second compound 0.1 µM
[3] = curve of first compound, second compound 0.316 µM
[4] = curve of first compound, second compound 1 µM
[5] = curve of first compound, second compound 3.16 µM
[6] = curve of first compound, second compound 10 µM
[7] = second compound 0.0316 µM, first compound 0.0316 µM
[8] = second compound 0.0316 µM, first compound 0.1 µM
[9] = second compound 0.0316 µM, first compound 0.316 µM
[10] = second compound 0.0316 µM, first compound 1 µM
[11] = second compound 0.0316 µM, first compound 3.16 µM
[12] = second compound 0.0316 µM, first compound 10 µM
[13] = second compound 0.1 µM, first compound 0.0316 µM
[14] = second compound 0.1 µM, first compound 0.1 µM
[15] = second compound 0.1 µM, first compound 0.316 µM
[16] = second compound 0.1 µM, first compound 1 µM
[17] = second compound 0.1 µM, first compound 3.16 µM
[18] = second compound 0.1 µM, first compound 10 µM
[19] = second compound 0.316 µM, first compound 0.0316 µM
[20] = second compound 0.316 µM, first compound 0.1 µM
[21] = second compound 0.316 µM, first compound 0.316 µM
[22] = second compound 0.316 µM, first compound 1 µM
[23] = second compound 0.316 µM, first compound 3.16 µM
[24] = second compound 0.316 µM, first compound 10 µM
[25] = second compound 1 µM, first compound 0.0316 µM
[26] = second compound 1 µM, first compound 0.1 µM
[27] = second compound 1 µM, first compound 0.316 µM
[28] = second compound 1 µM, first compound 1 µM
[29] = second compound 1 µM, first compound 3.16 µM
[30] = second compound 1 µM, first compound 10 µM
[31] = second compound 3.16 µM, first compound 0.0316 µM
[32] = second compound 3.16 µM, first compound 0.1 µM
[33] = second compound 3.16 µM, first compound 0.316 µM
[34] = second compound 3.16 µM, first compound 1 µM
[35] = second compound 3.16 µM, first compound 3.16 µM
[36] = second compound 3.16 µM, first compound 10 µM
[37] = second compound 10 µM, first compound 0.0316 µM
[38] = second compound 10 µM, first compound 0.1 µM
[39] = second compound 10 µM, first compound 0.316 µM
[40] = second compound 10 µM, first compound 1 µM
[41] = second compound 10 µM, first compound 3.16 µM
[42] = second compound 10 µM, first compound 10 µM
[43] = curve of first compound, second compound 0.00316 µM
[44] = curve of first compound, second compound 0.01 µM
[45] = second compound 0.00316 µM, first compound 0.0316 µM
[46] = second compound 0.00316 µM, first compound 0.1 µM
[47] = second compound 0.00316 µM, first compound 0.316 µM
[48] = second compound 0.00316 µM, first compound 1 µM
[49] = second compound 0.00316 µM, first compound 3.16 µM
[50] = second compound 0.00316 µM, first compound 10 µM
[51] = second compound 0.01 µM, first compound 0.0316 µM
[52] = second compound 0.01 µM, first compound 0.1 µM
[53] = second compound 0.01 µM, first compound 0.316 µM
[54] = second compound 0.01 µM, first compound 1 µM
[55] = second compound 0.01 µM, first compound 3.16 µM
[56] = second compound 0.01 µM, first compound 10 µM
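Note: spheroids exposed to compounds for seven days before readout.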

SMILES: C[C@@H](NC(=O)c1ncnc(N)c1Cl)c1ncc(C(=O)Nc2cc(C(F)(F)F)c(Cl)cn2)s1 + COc1c(OCCCN2CCOCC2)ccc2c3n(c(=NC(=O)c4cnc(N)nc4)nc12)CCN3
pIC50 [43]: < 5.00 | pIC50 [44]: < 5.00 | pIC50 [1]: < 5.00 | pIC50 [2]: < 5.00 | pIC50 [3]: > 7.50 | pIC50 [4]: > 7.50 | viability, T/C [45]: 96.1% | viability, T/C [46]: 88.5% | viability, T/C [47]: 107% | viability, T/C [48]: 110% | viability, T/C [49]: 116% | viability, T/C [50]: 66.7% | viability, T/C [51]: 96.3% | viability, T/C [52]: 96.8% | viability, T/C [53]: 111% | viability, T/C [54]: 89.5% | viability, T/C [55]: 69.9% | viability, T/C [56]: 72.1% | viability, T/C [7]: 78.9% | viability, T/C [8]: 88.3% | viability, T/C [9]: 77.5% | viability, T/C [10]: 84.3% | viability, T/C [11]: 86.1% | viability, T/C [12]: 76.2% | viability, T/C [13]: 62.2% | viability, T/C [14]: 70.8% | viability, T/C [15]: 68.1% | viability, T/C [16]: 82.1% | viability, T/C [17]: 83.2% | viability, T/C [18]: 59.8% | viability, T/C [19]: 34.3% | viability, T/C [20]: 37.2% | viability, T/C [21]: 44.1% | viability, T/C [22]: 42% | viability, T/C [23]: 57.3% | viability, T/C [24]: 34.2% | viability, T/C [25]: 20.4% | viability, T/C [26]: 19.5% | viability, T/C [27]: 20.1% | viability, T/C [28]: 20.9% | viability, T/C [29]: 15.2% | viability, T/C [30]: 5.92%

SMILES: CC(Nc1ccc2c(c1)OCCn1cc(N3C(=O)OCC3C(F)F)nc1-2)C(N)=O (centres undefined)
viability, T/C (compound 0.01 µM): 100% [middle of 7 runs] | viability, T/C (compound 0.0316 µM): 96.9% [middle of 7 runs] | viability, T/C (compound 0.1 µM): 80.8% [middle of 7 runs] | viability, T/C (compound 0.316 µM): 70.7% [middle of 7 runs] | viability, T/C (compound 1 µM): 64.9% [middle of 7 runs] | pIC50 (compound alone, run of 06/12/2023): < 6.00

Further lines, with some results ahead:

pIC50 [1]: < 5.00 | pIC50 [2]: < 5.00 | pIC50 [3]: < 5.00 | pIC50 [4]: 5.38 | pIC50 [5]: 5.75 | pIC50 [6]: 6.43
SMILES: C#Cc1c(F)ccc2cc(O)cc(-c3ncc4c(N5CC6CCC(C5)N6)nc(OCC56CCCN5CC(F)C6)nc4c3F)c12 (centres undefined) + Cc1nc(NC(=O)N2CCCC2C(N)=O)sc1-c1ccnc(C(C)(C)C(F)(F)F)c1
viability, T/C [7]: 82.9% | viability, T/C [8]: 83.3% | viability, T/C [9]: 79.5% | viability, T/C [10]: 95.8% | viability, T/C [11]: 67.7% | viability, T/C [12]: 70.6% | viability, T/C [13]: 70.9% | viability, T/C [14]: 79.6% | viability, T/C [15]: 93.5% | viability, T/C [16]: 87.1% | viability, T/C [17]: 76.8% | viability, T/C [18]: 57.3% | viability, T/C [19]: 93.9% | viability, T/C [20]: 109% | viability, T/C [21]: 69% | viability, T/C [22]: 56.2% | viability, T/C [23]: 82.1% | viability, T/C [24]: 52.5% | viability, T/C [25]: 82.8% | viability, T/C [26]: 82.6% | viability, T/C [27]: 67.3% | viability, T/C [28]: 65.7% | viability, T/C [29]: 52% | viability, T/C [30]: 41.4% | viability, T/C [31]: 72.1% | viability, T/C [32]: 59.9% | viability, T/C [33]: 75.2% | viability, T/C [34]: 50.2% | viability, T/C [35]: 46.1% | viability, T/C [36]: 29.4% | viability, T/C [37]: 60.1% | viability, T/C [38]: 47.5% | viability, T/C [39]: 43.9% | viability, T/C [40]: 49.6% | viability, T/C [41]: 34.1% | viability, T/C [42]: 1.14%

pIC50 [43]: 5.48 | pIC50 [44]: 5.70 | pIC50 [1]: 5.43 | pIC50 [2]: 5.85 | pIC50 [3]: > 7.50 | pIC50 [4]: > 7.50
SMILES: CC1(C)CCC(Nc2ncc(C(F)(F)F)c(-c3c[nH]c4c(P(C)(C)=O)c(C#N)ccc34)n2)CN1 (centres undefined) + COc1c(OCCCN2CCOCC2)ccc2c3n(c(=NC(=O)c4cnc(N)nc4)nc12)CCN3
viability, T/C [45]: 90% | viability, T/C [46]: 94.7% | viability, T/C [47]: 71.1% | viability, T/C [48]: 55.7% | viability, T/C [49]: 66.4% | viability, T/C [50]: 22.9% | viability, T/C [51]: 105% | viability, T/C [52]: 85.8% | viability, T/C [53]: 68.2% | viability, T/C [54]: 59.8% | viability, T/C [55]: 58.7% | viability, T/C [56]: 19.4% | viability, T/C [7]: 72.5% | viability, T/C [8]: 71.5% | viability, T/C [9]: 65.9% | viability, T/C [10]: 55% | viability, T/C [11]: 60.4% | viability, T/C [12]: 20.9% | viability, T/C [13]: 69% | viability, T/C [14]: 71.9% | viability, T/C [15]: 48.2% | viability, T/C [16]: 53.7% | viability, T/C [17]: 44.8% | viability, T/C [18]: 4.88% | viability, T/C [19]: 46.3% | viability, T/C [20]: 42.9% | viability, T/C [21]: 36.8% | viability, T/C [22]: 39.5% | viability, T/C [23]: 25.6% | viability, T/C [24]: 1.02% | viability, T/C [25]: 19.9% | viability, T/C [26]: 16.8% | viability, T/C [27]: 14.9% | viability, T/C [28]: 15.8% | viability, T/C [29]: 10.2% | viability, T/C [30]: 1.04%

pIC50 [1]: 5.24 | pIC50 [2]: 5.26 | pIC50 [3]: 5.29 | pIC50 [4]: 5.18 | pIC50 [5]: 5.33 | pIC50 [6]: 5.36
SMILES: CCCS(=O)(=O)Nc1ccc(F)c(C(=O)c2c[nH]c3ncc(-c4ccc(Cl)cc4)cc23)c1F + Cc1nc(NC(=O)N2CCCC2C(N)=O)sc1-c1ccnc(C(C)(C)C(F)(F)F)c1
viability, T/C [7]: 106% | viability, T/C [8]: 87.6% | viability, T/C [9]: 89.8% | viability, T/C [10]: 86.1% | viability, T/C [11]: 111% | viability, T/C [12]: 7.09% | viability, T/C [13]: 96.3% | viability, T/C [14]: 91.9% | viability, T/C [15]: 82.2% | viability, T/C [16]: 77.2% | viability, T/C [17]: 90.2% | viability, T/C [18]: 9.01% | viability, T/C [19]: 90.7% | viability, T/C [20]: 78.6% | viability, T/C [21]: 70.8% | viability, T/C [22]: 77.7% | viability, T/C [23]: 85.5% | viability, T/C [24]: 8.6% | viability, T/C [25]: 79.5% | viability, T/C [26]: 84.5% | viability, T/C [27]: 86% | viability, T/C [28]: 70.8% | viability, T/C [29]: 80.5% | viability, T/C [30]: 32.7% | viability, T/C [31]: 57% | viability, T/C [32]: 66.4% | viability, T/C [33]: 75.9% | viability, T/C [34]: 49.3% | viability, T/C [35]: 74.3% | viability, T/C [36]: 20.7% | viability, T/C [37]: 58.1% | viability, T/C [38]: 66.9% | viability, T/C [39]: 60.8% | viability, T/C [40]: 67.9% | viability, T/C [41]: 74.1% | viability, T/C [42]: 9.34%
